± gives the expanded uncertainty stated by the source.
Assays:
[1] = Liquid; for mass density: 293.15 K, 101.33 kPa, Vibrating tube method; for vapor or sublimation pressure: Ebulliometric method (Recirculating still)
[2] = refractive index (Na D-line) (dimensionless); conditions: 293.15 K; 101.33 kPa; Liquid; Standard Abbe refractometry

Row | mass density [1] | vapor or sublimation pressure ([1]; 367.1 K) | refractive index [2] | vapor or sublimation pressure ([1]; 453.7 K) | vapor or sublimation pressure ([1]; 357.6 K) | vapor or sublimation pressure ([1]; 346.5 K) | Compound
1 | 810.4 ± 0.8 kg/m3 | 40 ± 0.2 kPa | 1.3992 ± 0.0007 |  |  |  | CCCCO [butan-1-ol]
2 | 750 ± 0.8 kg/m3 |  | 1.4218 ± 0.0007 | 40 ± 0.2 kPa |  |  | CCCCCCCCCCCC [dodecane]
3 | 802.7 ± 0.8 kg/m3 |  | 1.3954 ± 0.0007 |  | 40 ± 0.2 kPa |  | CC(C)CO [2-methyl-1-propanol]
4 | 804.9 ± 0.8 kg/m3 |  | 1.3851 ± 0.0007 |  |  | 40 ± 0.2 kPa | CCCO [propan-1-ol]

Source: the NIST ThermoML archive (doi:10.1021/je500237g)
